Measurements as given in the supplement of paper PMC9549728.
Counter-ions that a name gives are not always drawn.

Assays:
Assay in all cases: IC50 (viability, PrestoBlue) (log10 nM)
Settings in all cases: exposure time: 72 h
[1] = test system: murine gastric organoid RAS-activated (Kras G12D; Tp53 R172H)
Description: (§1)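 Murine gastric corpus organoids (normal uninduced; RAS-activated Kras G12D/Tp53 R172H; diffuse Cdh1/Apc loss; WNT-activated Apc loss/Tp53 R172H) were seeded in Matrigel into pre-spotted 384-well plates. The plates held a 196-compound library at 6.7 nM to 25,004 nM (9 doses) and were incubated 72 h. Viability was read by PrestoBlue fluorescence (560/590 nm). IC50 came from non-linear regression (Prism), reported as log10 IC50 in nM, mean of 3 passages x 2 wells.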

[2] = test system: murine normal gastric organoid
Description: as §1

[3] = test system: murine gastric organoid WNT-activated (Apc fl/fl; Tp53 R172H)
Description: as §1

[4] = test system: murine gastric organoid diffuse (Cdh1 fl/fl; Apc fl/fl)
Description: as §1

Row | Compound | IC50 (log10 nM) [1] | IC50 (log10 nM) [2] | IC50 (log10 nM) [3] | IC50 (log10 nM) [4]
1 | Cc1nc(C(=O)NCC(=O)O)c(O)c2ccc(Oc3ccccc3)cc12 [Roxadustat (FG-4592)] | < 0.826 | 2.38 | 1.23 | 3.27
2 | O=C(Nc1cccc(Cl)c1)Nc1ncc(CCNc2ncnc3ccsc23)s1 [SNS-314] | 2.47 | 3.2 | 2.87 | 4.02
3 | Cc1cc(C)c(/C=C2\C(=O)Nc3ccccc32)[nH]1 [SU 5416] | 4.36 | 4.03 | 3.77 | 4.33
4 | Cn1cnc2c(F)c(Nc3ccc(Br)cc3Cl)c(C(=O)NOCCO)cc21 [Selumetinib] | 2.61 | 2.47 | 3.32 | 3.15
5 | CC(C)[C@H](O)C(=O)N[C@@H](C)C(=O)N[C@@H]1C(=O)N(C)CCc2ccccc21 [Semagacestat] | > 4.4 | 4.35 | 2.37 | > 4.4
6 | CNC(=O)c1cc(Oc2ccc(NC(=O)Nc3ccc(Cl)c(C(F)(F)F)c3)cc2)ccn1 [Sorafenib] | 3.98 | 3.78 | 3.9 | 3.88
7 | CN(N=O)C(=O)N[C@@H](C=O)[C@@H](O)[C@H](O)[C@H](O)CO [Streptozocin] | > 4.4 | 4.39 | 4.07 | > 4.4
8 | CCN(CC)CCNC(=O)c1c(C)[nH]c(/C=C2\C(=O)Nc3ccc(F)cc32)c1C [Sunitinib] | 3.93 | 3.8 | 3.94 | 3.92
9 | CC(=O)Nc1ccc(C(=O)Nc2ccccc2N)cc1 [Tacedinaline] | 3.87 | 4.34 | 4.35 | 3.97
10 | COc1cc2c(cc1OC)CN(CCc1ccc(NC(=O)c3cc(OC)c(OC)cc3NC(=O)c3cnc4ccccc4c3)cc1)CC2 [Tariquidar] | 3.73 | 4.26 | 3.76 | 3.95
11 | Cn1nnc2c(C(N)=O)ncn2c1=O [Temozolomide] | > 4.4 | 4.37 | 4.02 | > 4.4
12 | COc1cc([C@@H]2c3cc4c(cc3[C@@H](O[C@@H]3O[C@@H]5CO[C@@H](c6cccs6)O[C@H]5[C@H](O)[C@H]3O)[C@H]3COC(=O)[C@H]23)OCO4)cc(OC)c1O [Teniposide] | 1.83 | 1.79 | 2.84 | 2.35
13 | S=P(N1CC1)(N1CC1)N1CC1 [Thio-TEPA] | 4.17 | 4.21 | 4.16 | > 4.4
14 | CSc1ccc2c(c1)N(CCC1CCCCN1C)c1ccccc1S2 (stereo unspecified) [Thioridazine hydrochloride] | 4 | 3.9 | 3.52 | 4.13
15 | Cn1cncc1[C@@](N)(c1ccc(Cl)cc1)c1ccc2c(c1)c(-c1cccc(Cl)c1)cc(=O)n2C [Tipifarnib] | < 0.826 | 2.96 | 3.16 | 3.73
16 | O=C1NC(=O)[C@@H](c2cn3c4c(cccc24)CCC3)[C@@H]1c1c[nH]c2ccccc12 [Tivantinib] | 2.4 | 2.87 | 2.79 | 3.1
17 | COc1cc2nccc(Oc3ccc(NC(=O)Nc4cc(C)on4)c(Cl)c3)c2cc1OC [Tivozanib] | 3.6 | 2.5 | 3.74 | > 4.4

Row | Compound | IC50 (log10 nM) [1] | IC50 (log10 nM) [2] | IC50 (log10 nM) [3] | IC50 (log10 nM) [4]
18 | CC[C@@]1(O)C(=O)OCc2c1cc1n(c2=O)Cc2cc3c(CN(C)C)c(O)ccc3nc2-1 [Topotecan hydrochloride] | 1.68 | 1.48 | 2.36 | 2.4
19 | CC(=O)Nc1cccc(-n2c(=O)n(C3CC3)c(=O)c3c(Nc4ccc(I)cc4F)n(C)c(=O)c(C)c32)c1 [Trametinib] | 1.33 | 1.36 | 1.9 | 1.71
20 | CC(C)Nc1cc(-c2c[nH]c(C(=O)N[C@H](CO)c3cccc(Cl)c3)c2)c(Cl)cn1 [Ulixertinib] | 3.09 | 2.79 | 2.96 | 3.42
21 | Oc1ncc(N(CCCl)CCCl)c(O)n1 [Uramustine] | 3.2 | 3.3 | 3.68 | 3.69
22 | CCCCC(=O)OCC(=O)[C@]1(O)Cc2c(O)c3c(c(O)c2[C@@H](O[C@H]2C[C@H](NC(=O)C(F)(F)F)[C@H](O)[C@H](C)O2)C1)C(=O)c1c(OC)cccc1C3=O [Valrubicin] | 2.49 | 2.43 | 2.65 | 2.58
23 | COc1cc2/c(=N/c3ccc(Br)cc3F)nc[nH]c2cc1OCC1CCN(C)CC1 [Vandetanib] | 2.63 | 3.95 | 2.64 | 2.76
24 | Clc1ccc(Nc2nnc(Cc3ccncc3)c3ccccc23)cc1 [Vatalanib] | 3.75 | 3.55 | 3.61 | 4.26
25 | CC[C@]1(O)C[C@@H]2CN(CCc3c([nH]c4ccccc34)[C@@](C(=O)OC)(c3cc4c(cc3OC)N(C)[C@H]3[C@@](O)(C(=O)OC)[C@H](OC(C)=O)[C@]5(CC)C=CCN6CC[C@]43[C@@H]65)C2)C1 [Vinblastine sulfate] | < 0.826 | < 0.826 | < 0.826 | < 0.826
26 | CC[C@]1(O)C[C@H]2CN(CCc3c([nH]c4ccccc34)[C@@](C(=O)OC)(c3cc4c(cc3OC)N(C=O)[C@H]3[C@@](O)(C(=O)OC)[C@H](OC(C)=O)[C@]5(CC)C=CCN6CC[C@]43[C@@H]65)C2)C1 [Vincristine sulfate] | 2.08 | 1.68 | 2.19 | 1.89
27 | CC[C@]12C=CCN3CC[C@@]4(c5cc([C@@]6(C(=O)OC)C[C@@H]7C[C@@H](C(C)(F)F)CN(Cc8c6[nH]c6ccccc86)C7)c(OC)cc5N(C)[C@H]4[C@@](O)(C(=O)OC)[C@@H]1OC(C)=O)[C@@H]32 [Vinflunine tartrate] | 2.32 | 2.09 | 1.63 | 2.23
28 | CC[C@@H]1C(=O)N(C)c2cnc(Nc3ccc(C(=O)N[C@H]4CC[C@H](N5CCN(CC6CC6)CC5)CC4)cc3OC)nc2N1C(C)C [Volasertib] | 2.09 | 1.98 | 2.19 | 2.29
29 | O=C(CCCCCCC(=O)Nc1ccccc1)NO [Vorinostat] | 3.28 | 3.62 | 3.67 | 3.65
30 | C[C@H](NC(=O)/C(C#N)=C/c1cccc(Br)n1)c1ccccc1 [WP1066] | 3.49 | 3.47 | 3.26 | 3.52
31 | O[C@@H](COc1cccc2ncccc12)CN1CCN([C@@H]2c3ccccc3[C@@H]3[C@H](c4ccccc42)C3(F)F)CC1 [Zosuquidar trihydrochloride] | 4.07 | 3.88 | 4.03 | 4.02
32 | COC(=O)[C@]12CCC(C)(C)C[C@H]1[C@H]1C(=O)C=C3[C@@]4(C)C=C(C#N)C(=O)C(C)(C)[C@@H]4CC[C@@]3(C)[C@]1(C)CC2 [bardoxolone methyl] | 2.38 | 2.61 | 2.92 | 3.24
33 | O=c1[nH]cc(F)c(=O)[nH]1 [fluorouracil] | 3.32 | 3.4 | 4.09 | 3.28
34 | NC(=O)N1CCC(CC(=O)N2CCC([C@H]3c4ncc(Br)cc4CCc4cc(Cl)cc(Br)c43)CC2)CC1 [lonafarnib] | 3.03 | 3.33 | 3.47 | 4.3
